Assays:
Assay type in all cases: in vivo
[1] = test system: Field Violet (Viola arvensis); assay: Example 1 post-emergent turf plot test, violet; settings: 0.75 lb ai/acre
Description: (§1) The experimental design used randomized plots with post-emergent treatment and three replications per test trial. The size of each experimental plot was 4 feet by 6 feet. The application of each test composition was performed with pressurized back-pack sprayers, calibrated to spray 200 gallons per acre. Test compositions containing sulfentrazone (DISMISS™ Turf Herbicide), quniclorac, (FACET® 75 DF herbicide) or a mixture of sulfentrazone and quinclorac in a 1:3 ratio, prepared as described above, were diluted with water to provide the appropriate test rate concentrations.
(§2) The control of weeds was evaluated in each experimental plot from 7 to 41 days after treatment (DAT) of each test rate. The results, shown as an average of the replications, were compared with results observed in untreated control plots in the same trials.

[2] = test system: Smooth Crabgrass (Digitaria ischaemum); assay: Example 1 post-emergent turf plot test, 3 leaf/2 tiller crabgrass; settings: 0.75 lb ai/acre
Description: as §1, §2

[3] = test system: Field Violet (Viola arvensis); assay: Example 2 post-emergent turf plot test, violet; settings: 0.75 lb ai/acre
Description: The experimental design used randomized plots with post-emergent treatment and three replications per test trial. The size of each experimental plot was 4 feet by 6 feet. The application of each test composition was performed with pressurized back-pack sprayers, calibrated to spray 200 gallons per acre. Test compositions containing sulfentrazone (DISMISS™ Turf Herbicide), quinclorac, (FACET® 75 DF herbicide) or a mixture of sulfentrazone and quinclorac in a one to three ratio, prepared as described above, were diluted with water to provide the appropriate test rate concentrations.
The control of weeds was evaluated in each experimental plot from 1 to 27 days after treatment (DAT) of each test rate. The results, shown as an average of the replications, were compared with results observed in untreated control plots in the same trials.

Kochia (Kochia scoparia) = assay: Example 4 post-emergence greenhouse pot test, kochia
Description: (§3) Test compositions containing sulfentrazone (75 DF formulation), quniclorac, (DRIVE® 75 DF Herbicide) or mixtures of sulfentrazone and quinclorac at ratios of 1:1 to 1:5, were diluted with water to provide the appropriate test rate concentrations. A nonionic surfactant (0.25%) was added to each test solution. The test weeds include crabgrass (Digitaria sp), Chickweed (Stellaria media), Hemp Sesbania (Sesbania exaltata), Kochia (Kochia scoparia), Ivyleaf Morningglory (Ipomoea hederacea), Redroot Pigweed (Amaranthus retroflexus) and yellow nutsedge (Cyperus esculentusi).
(§4) For post-emergence testing, three disposable 3 inch square pots for each rate of application of each herbicide were filled with a soil, comprised of peat moss, vermiculite, bark ash, pine bark, limestone and a wetting agent, to which 8 to 10 seeds were planted. The pots were placed in a greenhouse and watered daily, thus allowing the seeds to germinate and the foliage to develop for 22 days, 3 months for Kochia.
(§5) Pots designated for treatment were placed on a conveyor belt and the conveyor belt fed under a spray nozzle mounted about ten inches above the foliage. The spray of herbicidal solution was commenced and once stabilized; the pots were passed under the spray at a speed to receive a coverage equivalent of 30 gallons per acre. The application rates are those shown in Table 4 below for the individual herbicidal solutions and the mixture of sulfentrazone and quinclorac. The post-emergence pots were immediately placed in the green-house and not watered until 24 hours after treatment with the test solution. Thereafter they were regularly watered at ground level. The control of weeds was evaluated in each experimental test from 2 to 20 days after treatment (DAT). The results, shown as an average of the replications, were compared with results observed in untreated control pots in the same tests.
(§6) Percent control was determined by a method similar to the 0 to 100 rating system disclosed in “Research Methods in Weed Science,” 2nd ed., B. Truelove, Ed.; Southern Weed Science Society; Auburn University, Auburn, Ala., 1977.

[4] = test system: Chickweed (Stellaria media); assay: Example 4 post-emergence greenhouse pot test, chickweed
Description: as §3, §4, §5, §6

[5] = test system: Ivyleaf Morningglory (Ipomoea hederacea); assay: Example 4 post-emergence greenhouse pot test, morningglory; settings: 0.25 lb ai/acre
Description: as §3, §4, §5, §6

Structure (SMILES): O=C(O)c1c(Cl)ccc2cc(Cl)cnc12 [B, 3,7-dichloro-8-quinolinecarboxylic acid]
- Percent Control ([1]; 7 DAT): 43%
- Percent Control ([1]; 14 DAT): 46%
- Percent Control ([1]; 21 DAT): 43%
- Percent Control ([1]; 28 DAT): 41%
- Percent Control ([1]; 41 DAT): 37%
- Percent Control ([2]; 7 DAT): 75%
- Percent Control ([2]; 14 DAT): 55%
- Percent Control ([2]; 21 DAT): 78%
- Percent Control ([2]; 28 DAT): 67%
- Percent Control ([2]; 41 DAT): 57%
- Percent Control ([3]; 7 DAT): 46%
- Percent Control ([3]; 14 DAT): 48%
- Percent Control ([3]; 21 DAT): 51%
- Percent Control (Kochia (Kochia scoparia); 0.25 lb ai/acre, 2 DAT): 0%
- Percent Control (Kochia (Kochia scoparia); 0.25 lb ai/acre, 7 DAT): 0%
- Percent Control (Kochia (Kochia scoparia); 0.25 lb ai/acre, 14 DAT): 5%
- Percent Control (Kochia (Kochia scoparia); 0.25 lb ai/acre, 20 DAT): 5%
- Percent Control (Kochia (Kochia scoparia); 0.5 lb ai/acre, 2 DAT): 0%
- Percent Control (Kochia (Kochia scoparia); 0.5 lb ai/acre, 7 DAT): 0%
- Percent Control (Kochia (Kochia scoparia); 0.5 lb ai/acre, 14 DAT): 20%
- Percent Control (Kochia (Kochia scoparia); 0.5 lb ai/acre, 20 DAT): 20%
- Percent Control (Kochia (Kochia scoparia); 0.75 lb ai/acre, 2 DAT): 0%
- Percent Control (Kochia (Kochia scoparia); 0.75 lb ai/acre, 7 DAT): 0%
- Percent Control (Kochia (Kochia scoparia); 0.75 lb ai/acre, 14 DAT): 10%
- Percent Control (Kochia (Kochia scoparia); 0.75 lb ai/acre, 20 DAT): 5%
- Percent Control (Kochia (Kochia scoparia); 1.0 lb ai/acre, 2 DAT): 0%
- Percent Control (Kochia (Kochia scoparia); 1.0 lb ai/acre, 7 DAT): 0%
- Percent Control (Kochia (Kochia scoparia); 1.0 lb ai/acre, 14 DAT): 10%
- Percent Control (Kochia (Kochia scoparia); 1.0 lb ai/acre, 20 DAT): 20%
- Percent Control (Kochia (Kochia scoparia); 1.25 lb ai/acre, 2 DAT): 0%
- Percent Control (Kochia (Kochia scoparia); 1.25 lb ai/acre, 7 DAT): 0%
- Percent Control (Kochia (Kochia scoparia); 1.25 lb ai/acre, 14 DAT): 10%
- Percent Control (Kochia (Kochia scoparia); 1.25 lb ai/acre, 20 DAT): 10%
- Percent Control ([4]; 0.25 lb ai/acre, 2 DAT): 0%
- Percent Control ([4]; 0.25 lb ai/acre, 7 DAT): 0%
- Percent Control ([4]; 0.25 lb ai/acre, 14 DAT): 0%
- Percent Control ([4]; 0.25 lb ai/acre, 20 DAT): 0%
- Percent Control ([4]; 0.5 lb ai/acre, 2 DAT): 0%
- Percent Control ([4]; 0.5 lb ai/acre, 7 DAT): 0%
- Percent Control ([4]; 0.5 lb ai/acre, 14 DAT): 0%
- Percent Control ([4]; 0.5 lb ai/acre, 20 DAT): 0%
- Percent Control ([4]; 0.75 lb ai/acre, 2 DAT): 0%
- Percent Control ([4]; 0.75 lb ai/acre, 7 DAT): 0%
- Percent Control ([4]; 0.75 lb ai/acre, 14 DAT): 0%
- Percent Control ([4]; 0.75 lb ai/acre, 20 DAT): 0%
- Percent Control ([4]; 1.0 lb ai/acre, 2 DAT): 0%
- Percent Control ([4]; 1.0 lb ai/acre, 7 DAT): 5%
- Percent Control ([4]; 1.0 lb ai/acre, 14 DAT): 5%
- Percent Control ([4]; 1.0 lb ai/acre, 20 DAT): 5%
- Percent Control ([4]; 1.25 lb ai/acre, 2 DAT): 5%
- Percent Control ([4]; 1.25 lb ai/acre, 7 DAT): 5%
- Percent Control ([4]; 1.25 lb ai/acre, 14 DAT): 2%
- Percent Control ([4]; 1.25 lb ai/acre, 20 DAT): 5%
- Percent Control ([5]; 2 DAT): 20%
- Percent Control ([5]; 7 DAT): 25%
- Percent Control ([5]; 14 DAT): 60%

From patent publication US10897901B2, “Herbicidal composition” (FMC Corporation, priority 2007, dated 2021)
